Measured values as given in PMC5426667, “Action of tyrosinase on alpha and beta-arbutin: A kinetic study” (PLoS ONE, 2017).

How the values were obtained:
[1] = deprotonated form is the nucleophile; no reference given; cited from earlier work
Mushroom tyrosinase [2] = biological target: T1, Mushroom tyrosinase (Agaricus bisporus, UniProt C7FF04); assay: Apparent inhibition of the monophenolase activity of tyrosinase (L-tyrosine as substrate, dopachrome at 475 nm); assay type: biochemical; details: Lineweaver-Burk, 3 mM arbutin
T1 sequence (C7FF04 1-392): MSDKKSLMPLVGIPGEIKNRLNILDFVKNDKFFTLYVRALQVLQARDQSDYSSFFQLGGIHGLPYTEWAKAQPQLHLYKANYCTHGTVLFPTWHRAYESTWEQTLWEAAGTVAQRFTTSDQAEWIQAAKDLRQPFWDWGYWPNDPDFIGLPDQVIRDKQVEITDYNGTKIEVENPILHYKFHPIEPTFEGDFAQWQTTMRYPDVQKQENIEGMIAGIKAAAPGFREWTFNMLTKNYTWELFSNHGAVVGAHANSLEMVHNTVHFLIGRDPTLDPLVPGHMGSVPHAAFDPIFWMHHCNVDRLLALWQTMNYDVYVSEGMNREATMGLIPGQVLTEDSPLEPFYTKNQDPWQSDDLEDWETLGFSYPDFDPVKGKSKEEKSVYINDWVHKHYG
Experimental: (§1) Mushroom tyrosinase (3130 U/mg) was obtained from Sigma (Madrid, Spain) and purified as previously described. Bradford’s method was used to determine the protein content using bovine serum albumin as standard.
(§2) Spectrophotometric assays were carried out with a PerkinElmer Lambda-35 spectrophotometer, online interfaced with a compatible PC 486DX microcomputer controlled by UV-Winlab software, where the kinetic data were recorded, stored, and analyzed.
The diphenolase activity of tyrosinase on L-dopa and the monophenolase activity on L-tyrosine were measured at 475 nm, the maximum absorption wavelength of dopachrome. To measure the activity of tyrosinase on L-tyrosine, the quantity of o-diphenol necessary to reach the steady state at time t = 0 was added. In this way, the characteristic lag period of the monophenolase activity, which complicates the measurement of the V0, was eliminated. This quantity is given by the equation R = [D]ss / [M]ss, where [D]ss and [M]ss are the concentrations of o-diphenol and monophenol respectively in the steady state with [M]ss ≈ [M]0. All the assays were carried out with R = 0.042. […]
The degrees of inhibition (i) were calculated using tyrosinase, L-dopa, L-tyrosine and the following formula: i (%) = [(V0-Vi)/V0] x 100, where V0 is the initial rate of the control and Vi the initial rate in the presence of the target molecule. […]

Mushroom tyrosinase [3] = biological target: T1, Mushroom tyrosinase; assay: Apparent inhibition of the diphenolase activity of tyrosinase (L-dopa as substrate, dopachrome at 475 nm); assay type: biochemical; set-up: purchased Sigma (Madrid, Spain); details: for type of inhibition of the diphenolase activity: Lineweaver-Burk, 3 mM arbutin; for degree of inhibition of the diphenolase activity (maximum reached): [E]0 = 30 nM, [L-dopa]0 = 0.5 mM, arbutin up to 30 mM
Experimental: as §1, §2
The diphenolase activity of tyrosinase on L-dopa and the monophenolase activity on L-tyrosine were measured at 475 nm, the maximum absorption wavelength of dopachrome. To measure the activity of tyrosinase on L-tyrosine, the quantity of o-diphenol necessary to reach the steady state at time t = 0 was added. In this way, the characteristic lag period of the monophenolase activity, which complicates the measurement of the V0, was eliminated. This quantity is given by the equation R = [D]ss / [M]ss, where [D]ss and [M]ss are the concentrations of o-diphenol and monophenol respectively in the steady state with [M]ss ≈ [M]0. All the assays were carried out with R = 0.042.
All of the assays were carried out at 25°C, using 30 mM phosphate buffer at pH 7.0. Three repetitions of each experiment were made.
The degrees of inhibition (i) were calculated using tyrosinase, L-dopa, L-tyrosine and the following formula: i (%) = [(V0-Vi)/V0] x 100, where V0 is the initial rate of the control and Vi the initial rate in the presence of the target molecule. The initial rates were obtained by linear regression fitting of the initial portions of each experimental recording.

Mushroom tyrosinase [4] = biological target: T1, Mushroom tyrosinase; assay: Kinetic characterization of arbutins as substrates of tyrosinase in the presence of MBTH; assay type: biochemical; details: [E]0 = 100 nM, [MBTH]0 = 0.2 mM, DMF 2%, pH 7.0, 25°C; for Km: read-out: KM (Michaelis constant) as substrate of tyrosinase
Experimental: This adduct is oxidized by another molecule of o-quinone, leading to the accumulation of o-diphenol in the medium, so, the system reach the steady state. This assay method is highly sensitive, reliable, and precise. […] The sequence of reactions is described in S1B Fig. All of the assays were carried out at 25°C, using 30 mM phosphate buffer at pH 7.0. Three repetitions of each experiment were made. Initial rate values (V0) were calculated at different substrate concentrations. The assays were carried out in saturating conditions of O2 [47-49]. The data for V0 vs. [arbutin]0 were represented and fitted to the Michaelis-Menten equation using the Sigma Plot 9.0 program for Windows, providing the maximum rate (Vmax) and the Michaelis constant (KM). […] These compounds were solubilised by adding 2% (v/v) DMF to the reaction medium. […] KM and kcat values were obtained fitting by non-linear regression (Table 2) the initial rate values vs. the concentration of substrate to the Eq 1 (Fig 7 and 7 Inset).

Structure (SMILES) | pKa [1] | type of inhibition of the monophenolase activity (Mushroom tyrosinase [2]) | type of inhibition of the diphenolase activity (Mushroom tyrosinase [3]) | degree of inhibition of the diphenolase activity (maximum reached) (Mushroom tyrosinase [3]) [%] | kcat (catalytic constant) as substrate of tyrosinase (Mushroom tyrosinase [4]) [s⁻¹] | Km (Mushroom tyrosinase [4]) [mM]
Cl.Cn1c(=NN)sc2ccccc21.O [MBTH, 3-methyl-2-benzothiazolinone hydrazone hydrochloride hydrate] | 5.8 ± 0.4 | – | – | – | – | –
OC[C@H]1O[C@H](Oc2ccc(O)cc2)[C@H](O)[C@@H](O)[C@@H]1O [α-Arbutin, (2R,3S,4S,5R,6R)-2-(hydroxymethyl)-6-(4-hydroxyphenoxy)oxane-3,4,5-triol] | – | apparent competitive inhibition | apparent competitive inhibition | < 100 | 4.43 ± 0.33 | 6.5 ± 0.58
OC[C@H]1O[C@@H](Oc2ccc(O)cc2)[C@H](O)[C@@H](O)[C@@H]1O [β-Arbutin, (2R,3S,4S,5R,6S)-2-(hydroxymethyl)-6-(4-hydroxyphenoxy)oxane-3,4,5-triol] | – | apparent competitive inhibition | apparent competitive inhibition | < 100 | 3.77 ± 0.29 | 3 ± 0.19
